Patent publication US11878975B2, “Substituted indole compounds useful as TLR inhibitors” (BRISTOL-MYERS SQUIBB COMPANY, priority 2017, dated 2024)

Assays:
Assay type in all cases: cell-based
human TLR7 = target: T1, human TLR7 (Homo sapiens, UniProt Q9NYK1); test: TLR7 inhibition reporter assay (HEK-Blue cells, SEAP reporter, gardiquimod stimulation); details: HEK-Blue cells overexpressing human TLR7, SEAP reporter, gardiquimod 7.5 μM
T1 construct: host or cells: HEK-Blue cells
T1 sequence (Q9NYK1 27-1049): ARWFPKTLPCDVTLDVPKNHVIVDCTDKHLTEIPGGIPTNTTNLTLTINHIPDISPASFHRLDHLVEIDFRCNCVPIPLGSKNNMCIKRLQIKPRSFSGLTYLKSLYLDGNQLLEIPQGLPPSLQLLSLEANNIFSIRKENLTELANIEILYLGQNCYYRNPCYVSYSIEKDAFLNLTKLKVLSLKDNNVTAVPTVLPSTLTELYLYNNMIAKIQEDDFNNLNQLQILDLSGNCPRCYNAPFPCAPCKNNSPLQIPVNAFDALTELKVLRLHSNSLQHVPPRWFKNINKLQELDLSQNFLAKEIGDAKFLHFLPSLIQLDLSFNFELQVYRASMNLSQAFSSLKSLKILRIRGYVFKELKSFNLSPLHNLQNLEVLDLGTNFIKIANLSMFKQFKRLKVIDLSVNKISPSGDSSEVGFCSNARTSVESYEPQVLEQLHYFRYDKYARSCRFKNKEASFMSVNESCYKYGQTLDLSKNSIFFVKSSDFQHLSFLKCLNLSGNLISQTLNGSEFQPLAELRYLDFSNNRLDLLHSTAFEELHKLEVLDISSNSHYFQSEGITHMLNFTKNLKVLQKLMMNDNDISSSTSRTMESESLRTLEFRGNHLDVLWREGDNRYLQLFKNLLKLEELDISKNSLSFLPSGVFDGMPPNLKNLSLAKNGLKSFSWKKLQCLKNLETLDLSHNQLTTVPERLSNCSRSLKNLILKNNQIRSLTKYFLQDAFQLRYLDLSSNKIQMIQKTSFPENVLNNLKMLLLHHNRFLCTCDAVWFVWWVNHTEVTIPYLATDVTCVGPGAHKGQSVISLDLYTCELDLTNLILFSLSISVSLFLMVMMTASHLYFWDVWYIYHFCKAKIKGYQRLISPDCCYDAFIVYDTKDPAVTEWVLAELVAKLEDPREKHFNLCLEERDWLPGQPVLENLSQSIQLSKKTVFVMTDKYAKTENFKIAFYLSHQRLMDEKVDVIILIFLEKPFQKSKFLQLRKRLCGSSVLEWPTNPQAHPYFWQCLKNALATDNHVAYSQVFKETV
Procedure, shortened: (§1)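 Ligand levels: TLR7 gardiquimod 7.5 μM, TLR8 R848 15.9 μM, TLR9 ODN2006 5 nM, added after 30 min room-temperature compound pre-incubation at 0.05 nM-50 μM. Reporter SEAP read with HEK-Blue Detection reagent after 22 h, 37° C. Inhibition expressed as % reduction relative to agonist-plus-DMSO and known-inhibitor controls.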

human TLR8 = target: T2, human TLR8 (Homo sapiens, UniProt Q9NR97); test: TLR8 inhibition reporter assay (HEK-Blue cells, SEAP reporter, R848 stimulation); details: HEK-Blue cells overexpressing human TLR8, SEAP reporter, R848 15.9 μM
T2 construct: host or cells: HEK-Blue cells
T2 sequence (Q9NR97 27-1041): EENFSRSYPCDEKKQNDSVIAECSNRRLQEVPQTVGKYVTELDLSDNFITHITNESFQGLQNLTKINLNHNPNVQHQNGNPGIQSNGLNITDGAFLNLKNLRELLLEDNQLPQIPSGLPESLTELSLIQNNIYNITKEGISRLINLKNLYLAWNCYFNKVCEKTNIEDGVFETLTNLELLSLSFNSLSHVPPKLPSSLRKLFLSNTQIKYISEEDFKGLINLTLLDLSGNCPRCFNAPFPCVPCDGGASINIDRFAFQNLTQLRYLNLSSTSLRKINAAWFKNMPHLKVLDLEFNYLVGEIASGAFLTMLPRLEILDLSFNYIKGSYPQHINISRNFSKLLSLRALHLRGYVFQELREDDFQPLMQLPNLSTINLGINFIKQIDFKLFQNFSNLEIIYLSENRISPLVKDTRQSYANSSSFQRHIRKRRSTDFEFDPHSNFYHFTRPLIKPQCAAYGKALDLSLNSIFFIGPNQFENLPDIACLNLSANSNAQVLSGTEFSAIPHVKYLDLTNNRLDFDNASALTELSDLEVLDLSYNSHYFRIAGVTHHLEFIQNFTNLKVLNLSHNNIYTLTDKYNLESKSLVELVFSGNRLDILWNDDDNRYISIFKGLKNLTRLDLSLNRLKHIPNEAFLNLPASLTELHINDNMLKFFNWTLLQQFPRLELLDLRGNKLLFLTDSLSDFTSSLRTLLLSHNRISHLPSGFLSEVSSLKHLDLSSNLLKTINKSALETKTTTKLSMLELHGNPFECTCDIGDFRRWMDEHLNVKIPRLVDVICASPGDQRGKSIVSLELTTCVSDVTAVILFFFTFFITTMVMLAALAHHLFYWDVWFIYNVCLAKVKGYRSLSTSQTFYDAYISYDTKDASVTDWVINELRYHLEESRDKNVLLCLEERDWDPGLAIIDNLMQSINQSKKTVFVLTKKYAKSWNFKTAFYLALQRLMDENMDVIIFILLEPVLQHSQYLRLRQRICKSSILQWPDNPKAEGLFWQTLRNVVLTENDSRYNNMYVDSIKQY
Procedure, shortened: as §1

human TLR9 = target: T3, human TLR9 (Homo sapiens, UniProt Q9NR96); test: TLR9 inhibition reporter assay (HEK-Blue cells, SEAP reporter, ODN2006 stimulation); details: HEK-Blue cells overexpressing human TLR9, SEAP reporter, ODN2006 5 nM
T3 construct: host or cells: HEK-Blue cells
T3 sequence (Q9NR96 26-1032): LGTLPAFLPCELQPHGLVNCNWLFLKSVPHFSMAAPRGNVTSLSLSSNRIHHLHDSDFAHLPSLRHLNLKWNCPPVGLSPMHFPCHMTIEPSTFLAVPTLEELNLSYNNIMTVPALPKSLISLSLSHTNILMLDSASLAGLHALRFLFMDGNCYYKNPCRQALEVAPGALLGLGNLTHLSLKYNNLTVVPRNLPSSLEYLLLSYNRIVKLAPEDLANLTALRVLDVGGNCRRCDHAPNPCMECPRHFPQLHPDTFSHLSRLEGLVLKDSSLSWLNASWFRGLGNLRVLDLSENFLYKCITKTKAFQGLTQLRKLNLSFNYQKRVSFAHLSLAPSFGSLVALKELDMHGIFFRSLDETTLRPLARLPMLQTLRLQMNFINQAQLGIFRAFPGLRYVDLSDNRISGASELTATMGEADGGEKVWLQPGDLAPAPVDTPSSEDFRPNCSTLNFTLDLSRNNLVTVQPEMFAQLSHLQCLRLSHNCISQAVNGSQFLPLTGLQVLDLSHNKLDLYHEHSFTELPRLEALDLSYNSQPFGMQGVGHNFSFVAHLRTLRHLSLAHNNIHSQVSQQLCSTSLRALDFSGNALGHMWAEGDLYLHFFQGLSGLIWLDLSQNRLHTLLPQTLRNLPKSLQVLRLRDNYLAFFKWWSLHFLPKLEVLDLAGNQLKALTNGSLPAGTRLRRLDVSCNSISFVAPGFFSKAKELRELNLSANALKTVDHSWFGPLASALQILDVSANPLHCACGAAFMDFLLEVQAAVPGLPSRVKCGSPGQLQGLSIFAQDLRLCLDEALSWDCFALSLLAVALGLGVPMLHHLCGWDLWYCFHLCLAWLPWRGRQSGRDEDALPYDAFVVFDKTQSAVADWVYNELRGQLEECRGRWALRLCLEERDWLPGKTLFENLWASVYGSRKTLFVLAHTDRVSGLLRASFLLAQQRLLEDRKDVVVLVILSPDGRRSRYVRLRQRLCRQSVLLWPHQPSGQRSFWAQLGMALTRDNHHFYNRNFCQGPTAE
Procedure, shortened: as §1

SMILES	IC50 (human TLR7)	IC50 (human TLR8)	IC50 (human TLR9)
COc1cc(-c2[nH]c3ccc(C4CCC(N5CC6(COC6)C5)CC4)cc3c2C(C)C)cn2ncnc12 (stereo not drawn) [Example 80]	0.85 nM	2.1 nM	1440 nM
COc1cc(-c2[nH]c3ccc(C4CCC(N(C)CC(F)F)CC4)cc3c2C(C)C)cn2ncnc12 (stereo not drawn) [Example 81]	17 nM	104 nM	25500 nM
COc1cc(-c2[nH]c3ccc(C4CCC(N(C)CCC(F)(F)F)CC4)cc3c2C(C)C)cn2ncnc12 (stereo not drawn) [Example 82]	7 nM	23 nM	5770 nM
CCN(C)C1CCC(c2ccc3[nH]c(-c4cn5ncnc5c(C)c4C)c(C(C)C)c3c2)CC1 (stereo not drawn) [Example 87]	0.32 nM	0.63 nM	1910 nM
CCN(C)C1CCC(c2ccc3[nH]c(-c4cn5ncnc5c(C)c4C)c(C(C)C)c3c2)CC1 (stereo not drawn) [Example 88]	2 nM	4.7 nM	1980 nM
CNC1CCC(c2ccc3[nH]c(-c4cn5ncnc5c(C)c4C)c(C(C)C)c3c2)CC1 (stereo not drawn) [Example 89]	0.23 nM	0.58 nM	1320 nM
COc1cc(-c2[nH]c3ccc(C4CCC(NC5COC5)CC4)cc3c2C(C)C)cn2ncnc12 (stereo not drawn) [Example 90]	0.48 nM	1.7 nM	1790 nM
CNC1CCC(c2ccc3[nH]c(-c4cn5ncnc5c(C)c4C)c(C(C)C)c3c2)CC1 (stereo not drawn) [Example 91]	0.86 nM	2.7 nM	2700 nM
Cc1c(-c2[nH]c3ccc(C4CCC(N5CC6(COC6)C5)CC4)cc3c2C(C)C)cn2ncnc2c1C (stereo not drawn) [Example 95]	2 nM	3.6 nM	1820 nM
COc1cc(-c2[nH]c3ccc(C4CCC(N5CC6(COC6)C5)CC4)cc3c2C(C)C)cn2ncnc12 (stereo not drawn) [Example 96]	2 nM	3.3 nM	1740 nM
COc1cc(-c2[nH]c3ccc(C4CCC(N(C)OC)CC4)cc3c2C(C)C)cn2ncnc12 (stereo not drawn) [Example 99]	7 nM	53 nM	15300 nM
COc1cc(-c2[nH]c3ccc(C4CCC(N(C)OC)CC4)cc3c2C(C)C)cn2ncnc12 (stereo not drawn) [Example 100]	32 nM	431 nM	14600 nM
Cc1cc(-c2[nH]c3ccc(C4CCC(N5CCOCC5)CC4)cc3c2C(C)C)cn2ncnc12 (stereo not drawn) [Example 102]	0.23 nM	0.71 nM	1890 nM
Cc1cc(-c2[nH]c3ccc(C4CCC(N5CCOCC5)CC4)cc3c2C(C)C)cn2ncnc12 (stereo not drawn) [Example 103]	2 nM	7.4 nM	4120 nM
Cc1cc(-c2[nH]c3ccc(C4CCC(NCC(C)(C)O)CC4)cc3c2C(C)C)cn2ncnc12 (stereo not drawn) [Example 104]	3 nM	6.5 nM	6410 nM
Cc1c(-c2[nH]c3ccc(C4CCC(N(C)C)CC4)cc3c2C(C)C)cn2ncnc2c1C (stereo not drawn) [Example 105]	0.75 nM	1.8 nM	2070 nM
Cc1c(-c2[nH]c3ccc(C4CCC(NCC(C)(C)O)CC4)cc3c2C(C)C)cn2ncnc2c1C (stereo not drawn) [Example 106]	0.67 nM	0.28 nM	1390 nM
COc1cc(-c2[nH]c3ccc(C4CCC(NCC(N)=O)CC4)cc3c2C(C)C)cn2ncnc12 (stereo not drawn) [Example 107]	0.22 nM	1.5 nM	1390 nM
COc1cc(-c2[nH]c3ccc(C4CCC(NCC(N)=O)CC4)cc3c2C(C)C)cn2ncnc12 (stereo not drawn) [Example 109]	0.83 nM	4.1 nM	1600 nM
Cc1c(-c2[nH]c3ccc(C4CCC(N(C)C)CC4)cc3c2C(C)C)cn2ncnc2c1C (stereo not drawn) [Example 111]	1 nM	2.6 nM	4100 nM
Cc1c(-c2[nH]c3ccc(C4CCC(NCC(C)(C)O)CC4)cc3c2C(C)C)cn2ncnc2c1C (stereo not drawn) [Example 112]	6 nM	2 nM	2320 nM
Cc1c(-c2[nH]c3ccc(C4CCC(N5CC6(COC6)C5)CC4)cc3c2C(C)C)cn2ncnc2c1C (stereo not drawn) [Example 113]	1 nM	0.79 nM	3250 nM
COc1cc(-c2[nH]c3ccc(C4CCC(NS(C)(=O)=O)CC4)cc3c2C(C)C)cn2ncnc12 (stereo not drawn) [Example 117, N-(4-(3-isopropyl-2-(8-methoxy-[1,2,4]triazolo[1,5-a]pyridin-6-yl)-1H-indol-5-yl)cyclohexyl)methanesulfonamide]	0.7 nM	9.8 nM	14100 nM
COc1cc(-c2[nH]c3ccc(C4CCC(NC(=O)CC(F)(F)F)CC4)cc3c2C(C)C)cn2ncnc12 (stereo not drawn) [Example 118, 3,3,3-trifluoro-N-(4-(3-isopropyl-2-(8-methoxy-[1,2,4]triazolo[1,5-a]pyridin-6-yl)-1H-indol-5-yl)cyclohexyl)propanamide]	2 nM	22 nM	15600 nM
Cc1cc(-c2[nH]c3ccc(C4CCC(NC(=O)CN(C)C)CC4)cc3c2C(C)C)cc(C)n1 (stereo not drawn) [Example 119]	0.95 nM	7.2 nM	976 nM
